Experiments:
HCC827GR cells [1] = assay: Annexin V/7-AAD apoptosis, HCC827GR; assay type: cell-based, human; parameters: Early apoptosis / Total apopt / Dead / Live: unit not given here; conditions: for apoptotic cells (annexin V+): 48 h, background 0.92 %; for Late apoptosis/Dead / Early apoptosis / Total apopt / Dead / Live: HCC827GR
Experimental: (§1) HaCaT cells were grown in DMEM, whereas HCC827 and HCC827GR cells were grown in RPMI 1640. All culture media were supplemented with FBS (10 %) and P/S (1 %), and the cells were grown at 37 °C in 5 % CO2.
Apoptosis was measured using a Muse™ Annexin V & Dead Cell Kit (MCH100105, Merck Millipore). The fluorescent signal was analyzed with a Muse™ Cell Analyzer.

MET = molecular target: T1, MET (Homo sapiens, UniProt P08581); assay: In vitro ADP-Glo kinase assay, MET; assay type: biochemical
T1 construct: purchased Promega
Experimental: Subsequently, each well was added with ADP-Glo reagent and incubated for another 40 min. After completion of the kinase reaction, each well was added with kinase activity detection reagent and then incubated for 30 min. Liquid was dispensed with I.DOT (Dispendix, Stuttgart, Germany). Luminescence was measured on a Centro LB 960 microplate luminometer (Berthold Technologies).

HCC827GR cells [2] = assay: Multi-caspase assay, HCC827GR; assay type: cell-based, human; parameters: Caspase+ cells / Total Caspase+ cells / dead cells (multi-caspase assay) / Live cells (multi-caspase assay): unit not given here; conditions: for cells with activated caspases: 48 h, background 6.43 %; for Caspase+ cells / Caspase+/dead cells / Live cells (multi-caspase assay) / Total Caspase+ cells / dead cells (multi-caspase assay): HCC827GR
Experimental: as §1

T1 sequence (P08581 25-1390): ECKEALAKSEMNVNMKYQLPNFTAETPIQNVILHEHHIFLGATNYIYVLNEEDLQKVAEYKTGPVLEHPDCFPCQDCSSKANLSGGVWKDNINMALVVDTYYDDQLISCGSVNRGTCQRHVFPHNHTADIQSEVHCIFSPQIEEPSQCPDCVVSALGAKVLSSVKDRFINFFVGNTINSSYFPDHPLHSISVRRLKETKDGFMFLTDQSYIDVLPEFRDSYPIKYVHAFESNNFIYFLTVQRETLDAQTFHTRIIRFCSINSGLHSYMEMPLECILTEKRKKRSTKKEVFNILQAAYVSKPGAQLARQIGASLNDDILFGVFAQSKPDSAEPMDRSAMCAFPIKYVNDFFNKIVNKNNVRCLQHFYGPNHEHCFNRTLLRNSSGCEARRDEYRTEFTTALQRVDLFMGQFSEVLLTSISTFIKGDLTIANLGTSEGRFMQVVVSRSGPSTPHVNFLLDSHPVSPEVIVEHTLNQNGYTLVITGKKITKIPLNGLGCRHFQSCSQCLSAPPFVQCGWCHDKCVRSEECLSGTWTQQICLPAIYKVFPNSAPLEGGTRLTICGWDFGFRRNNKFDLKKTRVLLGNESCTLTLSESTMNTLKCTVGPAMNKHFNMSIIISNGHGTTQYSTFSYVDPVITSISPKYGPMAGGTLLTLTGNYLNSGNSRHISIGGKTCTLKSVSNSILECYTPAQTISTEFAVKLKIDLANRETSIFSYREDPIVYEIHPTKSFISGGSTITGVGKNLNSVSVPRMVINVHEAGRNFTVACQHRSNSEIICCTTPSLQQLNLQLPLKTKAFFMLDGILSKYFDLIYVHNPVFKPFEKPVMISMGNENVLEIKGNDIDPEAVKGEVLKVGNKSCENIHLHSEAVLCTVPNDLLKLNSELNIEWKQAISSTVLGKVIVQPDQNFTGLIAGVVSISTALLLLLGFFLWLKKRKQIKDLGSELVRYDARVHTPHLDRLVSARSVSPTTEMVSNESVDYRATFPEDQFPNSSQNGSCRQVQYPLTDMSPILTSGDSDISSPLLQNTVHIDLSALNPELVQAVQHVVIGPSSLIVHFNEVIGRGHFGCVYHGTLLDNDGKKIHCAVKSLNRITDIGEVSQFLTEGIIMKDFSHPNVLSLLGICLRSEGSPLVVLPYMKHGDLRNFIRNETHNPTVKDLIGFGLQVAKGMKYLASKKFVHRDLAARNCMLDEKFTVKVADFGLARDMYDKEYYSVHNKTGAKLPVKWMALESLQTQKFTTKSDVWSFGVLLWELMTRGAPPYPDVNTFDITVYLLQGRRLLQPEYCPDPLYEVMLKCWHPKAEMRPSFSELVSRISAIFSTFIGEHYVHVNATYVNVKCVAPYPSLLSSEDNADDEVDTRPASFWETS

IC50 (MET; ADP-Glo, MET 4 ng, RT, 60 min, luminescence, n=3): 7.26 nM | kinase activity, in words (MET; DBG 3, 6, 12 nM): significantly inhibited
Compound: COc1ccc(C[C@H]2C(=O)N[C@@H](C)C(=O)N(C)[C@H]3Cc4ccc(cc4)Oc4cc(ccc4O[C@@H]4O[C@H](CO)[C@@H](O)[C@H](O)[C@H]4O)C[C@@H](C(=O)N[C@H](C)C(=O)N[C@@H](C)C(=O)N2C)N(C)C3=O)cc1 [DBG, deoxybouvardin glucoside]
apoptotic cells (annexin V+) (HCC827GR cells [1]; DBG 3 nM): 11.08% | apoptotic cells (annexin V+) (HCC827GR cells [1]; DBG 6 nM): 25.58% | apoptotic cells (annexin V+) (HCC827GR cells [1]; DBG 12 nM): 42.32% | Late apoptosis/Dead (HCC827GR cells [1]; DBG 3 nM, mean of 3 samples, untreated 0.23): 0.23 | Early apoptosis (HCC827GR cells [1]; DBG 3 nM, mean of 3 samples, untreated 0.68): 10.85 | Total apopt (HCC827GR cells [1]; DBG 3 nM, mean of 3 samples, untreated 0.92): 11.08 | Dead (HCC827GR cells [1]; DBG 3 nM, mean of 3 samples, untreated 5.53): 0.05 | Live (HCC827GR cells [1]; DBG 3 nM, mean of 3 samples, untreated 93.55): 88.87 | Dead (HCC827GR cells [1]; DBG 3 nM, replicate 1): 0.05 | Early apoptosis (HCC827GR cells [1]; DBG 3 nM, replicate 1): 9.50 | Late apoptosis/Dead (HCC827GR cells [1]; DBG 3 nM, replicate 1): 0.15 | Live (HCC827GR cells [1]; DBG 3 nM, replicate 1): 90.30 | Total apopt (HCC827GR cells [1]; DBG 3 nM, replicate 1): 9.65 | Dead (HCC827GR cells [1]; DBG 3 nM, replicate 2): 0.05 | Early apoptosis (HCC827GR cells [1]; DBG 3 nM, replicate 2): 10.80 | Late apoptosis/Dead (HCC827GR cells [1]; DBG 3 nM, replicate 2): 0.25 | Live (HCC827GR cells [1]; DBG 3 nM, replicate 2): 88.90 | Total apopt (HCC827GR cells [1]; DBG 3 nM, replicate 2): 11.05 | Dead (HCC827GR cells [1]; DBG 3 nM, replicate 3): 0.05 | Early apoptosis (HCC827GR cells [1]; DBG 3 nM, replicate 3): 12.25 | Late apoptosis/Dead (HCC827GR cells [1]; DBG 3 nM, replicate 3): 0.30 | Live (HCC827GR cells [1]; DBG 3 nM, replicate 3): 87.40 | Total apopt (HCC827GR cells [1]; DBG 3 nM, replicate 3): 12.55 | Late apoptosis/Dead (HCC827GR cells [1]; DBG 6 nM, mean of 3 samples, untreated 0.23): 0.50 | Early apoptosis (HCC827GR cells [1]; DBG 6 nM, mean of 3 samples, untreated 0.68): 25.08 | Total apopt (HCC827GR cells [1]; DBG 6 nM, mean of 3 samples, untreated 0.92): 25.58 | Dead (HCC827GR cells [1]; DBG 6 nM, mean of 3 samples, untreated 5.53): 0.10 | Live (HCC827GR cells [1]; DBG 6 nM, mean of 3 samples, untreated 93.55): 74.32 | Dead (HCC827GR cells [1]; DBG 6 nM, replicate 1): 0.00 | Early apoptosis (HCC827GR cells [1]; DBG 6 nM, replicate 1): 24.55 | Late apoptosis/Dead (HCC827GR cells [1]; DBG 6 nM, replicate 1): 0.55 | Live (HCC827GR cells [1]; DBG 6 nM, replicate 1): 74.90 | Total apopt (HCC827GR cells [1]; DBG 6 nM, replicate 1): 25.10 | Dead (HCC827GR cells [1]; DBG 6 nM, replicate 2): 0.15 | Early apoptosis (HCC827GR cells [1]; DBG 6 nM, replicate 2): 25.60 | Late apoptosis/Dead (HCC827GR cells [1]; DBG 6 nM, replicate 2): 0.40 | Live (HCC827GR cells [1]; DBG 6 nM, replicate 2): 73.85 | Total apopt (HCC827GR cells [1]; DBG 6 nM, replicate 2): 26.00 | Dead (HCC827GR cells [1]; DBG 6 nM, replicate 3): 0.15 | Early apoptosis (HCC827GR cells [1]; DBG 6 nM, replicate 3): 25.10 | Late apoptosis/Dead (HCC827GR cells [1]; DBG 6 nM, replicate 3): 0.55 | Live (HCC827GR cells [1]; DBG 6 nM, replicate 3): 74.20 | Total apopt (HCC827GR cells [1]; DBG 6 nM, replicate 3): 25.65 | Late apoptosis/Dead (HCC827GR cells [1]; DBG 12 nM, mean of 3 samples, untreated 0.23): 10.45 | Early apoptosis (HCC827GR cells [1]; DBG 12 nM, mean of 3 samples, untreated 0.68): 31.87 | Total apopt (HCC827GR cells [1]; DBG 12 nM, mean of 3 samples, untreated 0.92): 42.32 | Dead (HCC827GR cells [1]; DBG 12 nM, mean of 3 samples, untreated 5.53): 0.13 | Live (HCC827GR cells [1]; DBG 12 nM, mean of 3 samples, untreated 93.55): 57.55 | Dead (HCC827GR cells [1]; DBG 12 nM, replicate 1): 0.15 | Early apoptosis (HCC827GR cells [1]; DBG 12 nM, replicate 1): 31.85 | Late apoptosis/Dead (HCC827GR cells [1]; DBG 12 nM, replicate 1): 10.85 | Live (HCC827GR cells [1]; DBG 12 nM, replicate 1): 57.15 | Total apopt (HCC827GR cells [1]; DBG 12 nM, replicate 1): 42.70 | Dead (HCC827GR cells [1]; DBG 12 nM, replicate 2): 0.15 | Early apoptosis (HCC827GR cells [1]; DBG 12 nM, replicate 2): 31.65 | Late apoptosis/Dead (HCC827GR cells [1]; DBG 12 nM, replicate 2): 10.50 | Live (HCC827GR cells [1]; DBG 12 nM, replicate 2): 57.70 | Total apopt (HCC827GR cells [1]; DBG 12 nM, replicate 2): 42.15 | Dead (HCC827GR cells [1]; DBG 12 nM, replicate 3): 0.10 | Early apoptosis (HCC827GR cells [1]; DBG 12 nM, replicate 3): 32.10 | Late apoptosis/Dead (HCC827GR cells [1]; DBG 12 nM, replicate 3): 10.00 | Live (HCC827GR cells [1]; DBG 12 nM, replicate 3): 57.80 | Total apopt (HCC827GR cells [1]; DBG 12 nM, replicate 3): 42.10 | cells with activated caspases (HCC827GR cells [2]; DBG 3 nM): 23.91% | cells with activated caspases (HCC827GR cells [2]; DBG 6 nM): 31.13% | cells with activated caspases (HCC827GR cells [2]; DBG 12 nM): 33.34% | Caspase+ cells (HCC827GR cells [2]; DBG 3 nM, mean of samples 1-3): 8.71 | Caspase+/dead cells (HCC827GR cells [2]; DBG 3 nM, mean of samples 1-3): 15.20 | Live cells (multi-caspase assay) (HCC827GR cells [2]; DBG 3 nM, mean of samples 1-3): 74.50 | Total Caspase+ cells (HCC827GR cells [2]; DBG 3 nM, mean of samples 1-3): 23.91 | dead cells (multi-caspase assay) (HCC827GR cells [2]; DBG 3 nM, mean of samples 1-3): 1.60 | Caspase+ cells (HCC827GR cells [2]; DBG 3 nM, sample 1): 8.78 | Caspase+/dead cells (HCC827GR cells [2]; DBG 3 nM, sample 1): 15.95 | Live cells (multi-caspase assay) (HCC827GR cells [2]; DBG 3 nM, sample 1): 73.93 | Total Caspase+ cells (HCC827GR cells [2]; DBG 3 nM, sample 1): 24.73 | dead cells (multi-caspase assay) (HCC827GR cells [2]; DBG 3 nM, sample 1): 1.34 | Caspase+ cells (HCC827GR cells [2]; DBG 3 nM, sample 2): 8.19 | Caspase+/dead cells (HCC827GR cells [2]; DBG 3 nM, sample 2): 14.57 | Live cells (multi-caspase assay) (HCC827GR cells [2]; DBG 3 nM, sample 2): 75.49 | Total Caspase+ cells (HCC827GR cells [2]; DBG 3 nM, sample 2): 22.76 | dead cells (multi-caspase assay) (HCC827GR cells [2]; DBG 3 nM, sample 2): 1.75 | Caspase+ cells (HCC827GR cells [2]; DBG 3 nM, sample 3): 9.16 | Caspase+/dead cells (HCC827GR cells [2]; DBG 3 nM, sample 3): 15.07 | Live cells (multi-caspase assay) (HCC827GR cells [2]; DBG 3 nM, sample 3): 74.07 | Total Caspase+ cells (HCC827GR cells [2]; DBG 3 nM, sample 3): 24.23 | dead cells (multi-caspase assay) (HCC827GR cells [2]; DBG 3 nM, sample 3): 1.70 | Caspase+ cells (HCC827GR cells [2]; DBG 6 nM, mean of samples 1-3): 7.98 | Caspase+/dead cells (HCC827GR cells [2]; DBG 6 nM, mean of samples 1-3): 23.15 | Live cells (multi-caspase assay) (HCC827GR cells [2]; DBG 6 nM, mean of samples 1-3): 67.79 | Total Caspase+ cells (HCC827GR cells [2]; DBG 6 nM, mean of samples 1-3): 31.13 | dead cells (multi-caspase assay) (HCC827GR cells [2]; DBG 6 nM, mean of samples 1-3): 1.08 | Caspase+ cells (HCC827GR cells [2]; DBG 6 nM, sample 1): 7.79 | Caspase+/dead cells (HCC827GR cells [2]; DBG 6 nM, sample 1): 23.36 | Live cells (multi-caspase assay) (HCC827GR cells [2]; DBG 6 nM, sample 1): 67.58 | Total Caspase+ cells (HCC827GR cells [2]; DBG 6 nM, sample 1): 31.15 | dead cells (multi-caspase assay) (HCC827GR cells [2]; DBG 6 nM, sample 1): 1.27 | Caspase+ cells (HCC827GR cells [2]; DBG 6 nM, sample 2): 7.88 | Caspase+/dead cells (HCC827GR cells [2]; DBG 6 nM, sample 2): 23.02 | Live cells (multi-caspase assay) (HCC827GR cells [2]; DBG 6 nM, sample 2): 67.97 | Total Caspase+ cells (HCC827GR cells [2]; DBG 6 nM, sample 2): 30.90 | dead cells (multi-caspase assay) (HCC827GR cells [2]; DBG 6 nM, sample 2): 1.13 | Caspase+ cells (HCC827GR cells [2]; DBG 6 nM, sample 3): 8.26 | Caspase+/dead cells (HCC827GR cells [2]; DBG 6 nM, sample 3): 23.08 | Live cells (multi-caspase assay) (HCC827GR cells [2]; DBG 6 nM, sample 3): 67.82 | Total Caspase+ cells (HCC827GR cells [2]; DBG 6 nM, sample 3): 31.34 | dead cells (multi-caspase assay) (HCC827GR cells [2]; DBG 6 nM, sample 3): 0.83 | Caspase+ cells (HCC827GR cells [2]; DBG 12 nM, mean of samples 1-3): 9.57 | Caspase+/dead cells (HCC827GR cells [2]; DBG 12 nM, mean of samples 1-3): 23.77 | Live cells (multi-caspase assay) (HCC827GR cells [2]; DBG 12 nM, mean of samples 1-3): 66.05 | Total Caspase+ cells (HCC827GR cells [2]; DBG 12 nM, mean of samples 1-3): 33.34 | dead cells (multi-caspase assay) (HCC827GR cells [2]; DBG 12 nM, mean of samples 1-3): 0.61 | Caspase+ cells (HCC827GR cells [2]; DBG 12 nM, sample 1): 11.11 | Caspase+/dead cells (HCC827GR cells [2]; DBG 12 nM, sample 1): 21.58 | Live cells (multi-caspase assay) (HCC827GR cells [2]; DBG 12 nM, sample 1): 67.07 | Total Caspase+ cells (HCC827GR cells [2]; DBG 12 nM, sample 1): 32.69 | dead cells (multi-caspase assay) (HCC827GR cells [2]; DBG 12 nM, sample 1): 0.24 | Caspase+ cells (HCC827GR cells [2]; DBG 12 nM, sample 2): 10.36 | Caspase+/dead cells (HCC827GR cells [2]; DBG 12 nM, sample 2): 24.35 | Live cells (multi-caspase assay) (HCC827GR cells [2]; DBG 12 nM, sample 2): 65.05 | Total Caspase+ cells (HCC827GR cells [2]; DBG 12 nM, sample 2): 34.70 | dead cells (multi-caspase assay) (HCC827GR cells [2]; DBG 12 nM, sample 2): 0.24 | Caspase+ cells (HCC827GR cells [2]; DBG 12 nM, sample 3): 7.24 | Caspase+/dead cells (HCC827GR cells [2]; DBG 12 nM, sample 3): 25.38 | Live cells (multi-caspase assay) (HCC827GR cells [2]; DBG 12 nM, sample 3): 66.02 | Total Caspase+ cells (HCC827GR cells [2]; DBG 12 nM, sample 3): 32.62 | dead cells (multi-caspase assay) (HCC827GR cells [2]; DBG 12 nM, sample 3): 1.36
